From PubChem BioAssay AID342 (DTP/NCI, 2004)
“And” between values parts separate entries of the source, which are not always exact repeats. Equal entries are not always repeated.

Test system: Swiss mice, Sarcoma 180 sc, mean tumor weight T/C
Test: NCI In Vivo Anticancer Drug Screen. Data for tumor model Sarcoma 180 (subcutaneous) in Swiss mice
Conditions: endpoint: mean tumor weight, higher = larger tumour
Method in brief: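 Transplantable tumors were established in mice, compound was given, then survival or tumor size was recorded. The treated value was divided by the vehicle-control value.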

[1] = dose: 100.0 mg/kg/injection, schedule: Q01DX007 (ip), vehicle: saline
[2] = dose: 16.0 mg/kg/injection, schedule: Q01DX007 (ip), vehicle: saline
[3] = dose: 24.0 mg/kg/injection, schedule: Q01DX007 (ip), vehicle: saline

## CCOC(=O)Nc1ccc2c(c1)/C(=N\NC(N)=S)c1ccccc1-2
dose: 5.0 mg/kg/injection, schedule: Q01DX007 (ip), vehicle: carboxymethylcellulose (CMC)
  T/C: 86 % of control
dose: 15.0 mg/kg/injection, schedule: Q01DX007 (ip), vehicle: carboxymethylcellulose (CMC)
  T/C: 44 % of control
dose: 30.0 mg/kg/injection, schedule: Q01DX007 (ip), vehicle: carboxymethylcellulose (CMC)
  T/C: 55 % of control
dose: 49.0 mg/kg/injection, schedule: Q01DX007 (ip), vehicle: carboxymethylcellulose (CMC)
  T/C: 85 % of control
dose: 60.0 mg/kg/injection, schedule: Q01DX007 (ip), vehicle: carboxymethylcellulose (CMC)
  T/C: 63 % of control
dose: 73.0 mg/kg/injection, schedule: Q01DX007 (ip), vehicle: carboxymethylcellulose (CMC)
  T/C: 63 % of control
dose: 110.0 mg/kg/injection, schedule: Q01DX007 (ip), vehicle: carboxymethylcellulose (CMC)
  T/C: 112 % of control

## COc1ccc(C(=O)/C(Br)=C/C(=O)O)cc1
dose: 6.25 mg/kg/injection, schedule: Q01DX007 (ip), vehicle: water
  T/C: 99 % of control
dose: 12.5 mg/kg/injection, schedule: Q01DX007 (ip), vehicle: water
  T/C: 82 % of control
dose: 25.0 mg/kg/injection, schedule: Q01DX007 (ip), vehicle: water
  T/C: 108 % of control

## O=C1Cc2ccccc2C(=O)N1
dose: 15.0 mg/kg/injection, schedule: Q#A X014 (ip), vehicle: carboxymethylcellulose (CMC)
  T/C: 84 % of control
dose: 30.0 mg/kg/injection, schedule: Q#A X014 (ip), vehicle: carboxymethylcellulose (CMC)
  T/C: 79 % of control

## CCC(CC)C(O)CCCN(C)C (configuration not stated)
[1]
  T/C: 103 % of control
dose: 200.0 mg/kg/injection, schedule: Q01DX007 (ip), vehicle: saline
  T/C: 95 % of control
dose: 400.0 mg/kg/injection, schedule: Q01DX007 (ip), vehicle: saline
  T/C: 75 % of control

## Nc1c(Br)cc2c(c1Br)Cc1cc(Cl)ccc1-2
dose: 27.0 mg/kg/injection, schedule: Q01DX007 (ip), vehicle: other
  T/C: 52 % of control
dose: 41.0 mg/kg/injection, schedule: Q01DX007 (ip), vehicle: other
  T/C: 44 % of control
dose: 62.0 mg/kg/injection, schedule: Q01DX007 (ip), vehicle: other
  T/C: 60 % of control

## Clc1ccc2c(Cl)ncnc2c1
dose: 22.0 mg/kg/injection, schedule: Q#A X014 (ip), vehicle: methylcellulose (MC)
  T/C: 58 % of control and 64 % of control
dose: 22.5 mg/kg/injection, schedule: Q#A X014 (ip), vehicle: methylcellulose (MC)
  T/C: 80 % of control
dose: 33.0 mg/kg/injection, schedule: Q#A X014 (ip), vehicle: methylcellulose (MC)
  T/C: 57 % of control and 65 % of control
dose: 33.5 mg/kg/injection, schedule: Q#A X014 (ip), vehicle: methylcellulose (MC)
  T/C: 51 % of control
dose: 50.0 mg/kg/injection, schedule: Q#A X014 (ip), vehicle: methylcellulose (MC)
  T/C: 42 % of control and 48 % of control and 64 % of control
dose: 75.0 mg/kg/injection, schedule: Q#A X014 (ip), vehicle: methylcellulose (MC)
  T/C: 21 % of control

## NC1C(O)C(O)C(Nc2ncnc3nc[nH]c23)OC1C(O)CO (configuration not stated)
dose: 0.44 mg/kg/injection, schedule: Q## X000 (ip), vehicle: carboxymethylcellulose (CMC)
  T/C: 100 % of control
dose: 0.66 mg/kg/injection, schedule: Q## X000 (ip), vehicle: carboxymethylcellulose (CMC)
  T/C: 66 % of control
dose: 1.0 mg/kg/injection, schedule: Q## X000 (ip), vehicle: carboxymethylcellulose (CMC)
  T/C: 82 % of control
dose: 1.5 mg/kg/injection, schedule: Q## X000 (ip), vehicle: carboxymethylcellulose (CMC)
  T/C: 72 % of control

## COc1ccc2c3c([nH]c2c1)[C@H]1C[C@H]2[C@H](C[C@@H](O)[C@H](OC)[C@H]2CO)CN1CC3
dose: 0.5 mg/kg/injection, schedule: Q01DX007 (ip), vehicle: saline
  T/C: 120 % of control
dose: 1.0 mg/kg/injection, schedule: Q01DX007 (ip), vehicle: saline
  T/C: 121 % of control
dose: 2.0 mg/kg/injection, schedule: Q01DX007 (ip), vehicle: saline
  T/C: 95 % of control
dose: 4.0 mg/kg/injection, schedule: Q01DX007 (ip), vehicle: saline
  T/C: 94 % of control
dose: 8.0 mg/kg/injection, schedule: Q01DX007 (ip), vehicle: saline
  T/C: 102 % of control
[2]
  T/C: 77 % of control
dose: 32.0 mg/kg/injection, schedule: Q01DX007 (ip), vehicle: saline
  T/C: 102 % of control

## O=C1NC(=O)C2(CCCc3ccc(N(CCCl)CCCl)cc32)N1 (configuration not stated)
dose: 16.0 mg/kg/injection, schedule: Q01DX007 (ip), vehicle: other
  T/C: 70 % of control
[2]
  T/C: 67 % of control
dose: 24.0 mg/kg/injection, schedule: Q01DX007 (ip), vehicle: other
  T/C: 107 % of control
[3]
  T/C: 85 % of control
dose: 36.0 mg/kg/injection, schedule: Q01DX007 (ip), vehicle: other
  T/C: 61 % of control
dose: 36.0 mg/kg/injection, schedule: Q01DX007 (ip), vehicle: saline
  T/C: 75 % of control
dose: 55.0 mg/kg/injection, schedule: Q01DX007 (ip), vehicle: saline
  T/C: 52 % of control
dose: 125.0 mg/kg/injection, schedule: Q01DX007 (ip), vehicle: saline
  T/C: 29 % of control
dose: 188.0 mg/kg/injection, schedule: Q01DX007 (ip), vehicle: other
  T/C: 65 % of control
dose: 282.0 mg/kg/injection, schedule: Q01DX007 (ip), vehicle: other
  T/C: 80 % of control
dose: 423.0 mg/kg/injection, schedule: Q01DX007 (ip), vehicle: other
  T/C: 81 % of control

## NC(Cc1cccs1)C(=O)O (configuration not stated)
dose: 175.0 mg/kg/injection, schedule: Q01DX007 (ip), vehicle: carboxymethylcellulose (CMC)
  T/C: 95 % of control
dose: 250.0 mg/kg/injection, schedule: Q01DX007 (ip), vehicle: carboxymethylcellulose (CMC)
  T/C: 81 % of control
dose: 1000.0 mg/kg/injection, schedule: Q01DX007 (ip), vehicle: carboxymethylcellulose (CMC)
  T/C: 108 % of control

## CN1CCc2cc3c(cc2C(=O)Cc2ccc4c(c2C1)OCO4)OCO3
dose: 1.56 mg/kg/injection, schedule: Q01DX007 (ip), vehicle: saline
  T/C: 109 % of control
dose: 3.13 mg/kg/injection, schedule: Q01DX007 (ip), vehicle: saline
  T/C: 69 % of control
dose: 6.25 mg/kg/injection, schedule: Q01DX007 (ip), vehicle: saline
  T/C: 119 % of control
dose: 25.0 mg/kg/injection, schedule: Q01DX007 (ip), vehicle: saline
  T/C: 60 % of control
dose: 50.0 mg/kg/injection, schedule: Q01DX007 (ip), vehicle: saline
  T/C: 64 % of control
dose: 62.0 mg/kg/injection, schedule: Q01DX007 (ip), vehicle: carboxymethylcellulose (CMC)
  T/C: 79 % of control
[1]
  T/C: 80 % of control

## N#[N+]c1nc[nH]c1C(N)=O
dose: 0.62 mg/kg/injection, schedule: Q#A X014 (ip), vehicle: methylcellulose (MC)
  T/C: 61 % of control
dose: 1.25 mg/kg/injection, schedule: Q#A X014 (ip), vehicle: methylcellulose (MC)
  T/C: 53 % of control
dose: 2.5 mg/kg/injection, schedule: Q#A X014 (ip), vehicle: methylcellulose (MC)
  T/C: 55 % of control

## CN1CC(=O)N=C1N
dose: 500.0 mg/kg/injection, schedule: Q#A X014 (ip), vehicle: water
  T/C: 74 % of control
dose: 1500.0 mg/kg/injection, schedule: Q#A X014 (ip), vehicle: water
  T/C: 73 % of control

## CC1OC2CC(=O)OC2C2=C1C(=O)c1c(O)c3c(c(O)c1C2=O)C1CC(O)C3(O)C(C)O1 (configuration not stated)
dose: 0.01 mg/kg/injection, schedule: Q01DX007 (ip), vehicle: saline
  T/C: 114 % of control
dose: 0.03 mg/kg/injection, schedule: Q01DX007 (ip), vehicle: saline
  T/C: 112 % of control
dose: 0.1 mg/kg/injection, schedule: Q01DX007 (ip), vehicle: saline
  T/C: 112 % of control
dose: 0.2 mg/kg/injection, schedule: Q01DX007 (ip), vehicle: saline
  T/C: 113 % of control
dose: 0.4 mg/kg/injection, schedule: Q01DX007 (ip), vehicle: saline
  T/C: 116 % of control
dose: 0.8 mg/kg/injection, schedule: Q01DX007 (ip), vehicle: saline
  T/C: 99 % of control
dose: 1.6 mg/kg/injection, schedule: Q01DX007 (ip), vehicle: saline
  T/C: 94 % of control
dose: 6.4 mg/kg/injection, schedule: Q01DX007 (ip), vehicle: saline
  T/C: 79 % of control
dose: 12.0 mg/kg/injection, schedule: Q01DX007 (ip), vehicle: saline
  T/C: 88 % of control
dose: 12.8 mg/kg/injection, schedule: Q01DX007 (ip), vehicle: saline
  T/C: 64 % of control
[3]
  T/C: 61 % of control
